Measured values reported in paper PMC4406325 (MedChemComm, 2014).

Experiments:
[1] = tested on: KB (nasopharyngeal carcinoma); experiment: SRB cytotoxic activity assay, KB; assay type: cell-based, human; conditions: 3 days in culture, average of three independent measurements
HIV-1 NL4-3 = experiment: Anti-HIV-1 assay; assay type: cell-based; conditions: HIV-1 NL4-3, MT4 cells
CDK9/cyclin T1 = CDK9/cyclin T1 (Homo sapiens, UniProt P50750); experiment: CDK9/Cyclin T1 kinase assay; assay type: biochemical; conditions: among all compounds tested at molecular level
Sequence of CDK9/cyclin T1 (P50750 whole entry): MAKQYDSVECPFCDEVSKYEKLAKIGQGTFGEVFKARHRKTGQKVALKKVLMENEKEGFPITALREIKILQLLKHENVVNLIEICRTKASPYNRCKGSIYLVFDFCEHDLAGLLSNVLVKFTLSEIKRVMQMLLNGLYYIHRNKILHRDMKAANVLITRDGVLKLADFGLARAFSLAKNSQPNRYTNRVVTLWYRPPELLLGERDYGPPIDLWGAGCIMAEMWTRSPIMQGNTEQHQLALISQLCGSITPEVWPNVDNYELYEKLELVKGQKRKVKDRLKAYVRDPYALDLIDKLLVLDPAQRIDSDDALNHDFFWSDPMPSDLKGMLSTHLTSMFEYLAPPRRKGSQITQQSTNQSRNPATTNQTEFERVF
Sequence of CDK9/cyclin T1 (O60563 whole entry partner): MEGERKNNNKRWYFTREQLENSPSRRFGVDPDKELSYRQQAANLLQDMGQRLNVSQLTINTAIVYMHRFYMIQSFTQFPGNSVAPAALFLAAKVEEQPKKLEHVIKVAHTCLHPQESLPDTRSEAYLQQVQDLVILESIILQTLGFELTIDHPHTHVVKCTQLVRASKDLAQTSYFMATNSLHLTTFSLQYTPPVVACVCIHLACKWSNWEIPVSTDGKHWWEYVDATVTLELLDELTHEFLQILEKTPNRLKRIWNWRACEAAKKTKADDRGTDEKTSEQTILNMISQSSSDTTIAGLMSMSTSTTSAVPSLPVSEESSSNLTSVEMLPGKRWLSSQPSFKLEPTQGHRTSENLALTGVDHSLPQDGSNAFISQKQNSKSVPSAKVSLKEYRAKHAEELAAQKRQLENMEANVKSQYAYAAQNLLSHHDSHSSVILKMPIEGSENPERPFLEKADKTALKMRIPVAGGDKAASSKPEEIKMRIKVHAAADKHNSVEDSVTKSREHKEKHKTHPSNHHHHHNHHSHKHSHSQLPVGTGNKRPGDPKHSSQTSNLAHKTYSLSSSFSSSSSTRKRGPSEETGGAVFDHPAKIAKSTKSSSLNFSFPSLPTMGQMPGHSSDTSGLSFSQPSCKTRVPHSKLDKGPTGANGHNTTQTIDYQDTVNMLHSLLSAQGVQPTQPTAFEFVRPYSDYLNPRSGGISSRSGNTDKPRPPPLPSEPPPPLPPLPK

Row | selectivity to CDK9 over CDK2 (in words) (CDK9/cyclin T1) | Structure (SMILES) | GI50 KB [1] | inhibition in anti-HIV-1 assay (in words) (HIV-1 NL4-3)
1 | – | O=C(c1cccc(Nc2ncc(F)c(Nc3ccc(F)cc3)n2)c1)N1CCOCC1 [Compound 11a] | 14.58 ± 2.93 µM | –
2 | – | Cn1ccnc1NC(=O)c1cccc(Nc2ncc(F)c(Nc3ccc(F)cc3)n2)c1 [Compound 11p] | 14.57 ± 1.70 µM | –
3 | – | Fc1ccc(Nc2nc(Nc3cccc(N4CCOCC4)c3)ncc2F)cc1 [Compound 6c] | > 10 µM | –
4 | – | O=C(Nc1ccc(N2CCOCC2)cc1)c1cccc(Nc2ncc(F)c(Nc3ccc(F)cc3)n2)c1 [Compound 11i] | > 10 µM | –
5 | – | Fc1cnc(Nc2cccc(N3CCOCC3)c2)nc1Nc1cc(Cl)cc(Cl)c1 [Compound 6a] | 14.80 ± 1.02 µM | –
6 | – | O=C(Nc1ccc(C(F)(F)F)cc1)c1cccc(Nc2ncc(F)c(Nc3ccc(F)cc3)n2)c1 [Compound 11h] | > 10 µM | –
7 | – | O=C(Nc1ccc2c(c1)OCO2)c1cccc(Nc2ncc(F)c(Nc3ccc(F)cc3)n2)c1 [Compound 11l] | 14.08 ± 0.79 µM | –
8 | – | CN1CCN(C(=O)c2cccc(Nc3ncc(F)c(Nc4ccc(F)cc4)n3)c2)CC1 [Compound 11b] | 12.58 ± 3.05 µM | –
9 | – | COc1ccc(NC(=O)c2cccc(Nc3ncc(F)c(Nc4ccc(F)cc4)n3)c2)cc1 [Compound 11j] | > 10 µM | –
10 | – | O=C(Nc1ccccn1)c1cccc(Nc2ncc(F)c(Nc3ccc(F)cc3)n2)c1 [Compound 11n] | 20.03 ± 10.96 µM | –
11 | – | O=C(c1cccc(Nc2ncc(F)c(Nc3ccc(F)cc3)n2)c1)N1CCCCC1 [Compound 11c] | 14.78 ± 2.53 µM | –
12 | – | CC(=O)N1CCCN(C(=O)c2cccc(Nc3ncc(F)c(Nc4ccc(F)cc4)n3)c2)CC1 [Compound 11e] | 14.88 ± 2.20 µM | Appreciable inhibition
13 | – | O=C(Nc1cccc(Nc2ncc(F)c(Nc3ccc(F)cc3)n2)c1)c1cnccn1 [Compound 9e] | 23.55 ± 3.92 µM | –
14 | – | O=C(Nc1cccc(Nc2ncc(F)c(Nc3ccc(F)cc3)n2)c1)c1ccccc1 [Compound 9a] | > 10 µM | –
15 | – | COc1ccc(N2CCOCC2)cc1Nc1ncc(F)c(Nc2ccc(F)cc2)n1 [Compound 6e] | > 10 µM | –
16 | moderate selectivity to CDK9 over CDK2 | O=C(Nc1cccc(Nc2ncc(F)c(Nc3ccc(F)cc3)n2)c1)c1ccncc1 [Compound 9d] | 5.28 ± 3.49 µM | –

Row | selectivity to CDK9 over CDK2 (in words) (CDK9/cyclin T1) | Structure (SMILES) | GI50 KB [1] | inhibition in anti-HIV-1 assay (in words) (HIV-1 NL4-3)
17 | – | O=C(Nc1cc(Cl)cc(Cl)c1)c1cccc(Nc2ncc(F)c(Nc3ccc(F)cc3)n2)c1 [Compound 11m] | 20.08 ± 1.06 µM | –
18 | – | COCC(=O)Nc1cccc(Nc2ncc(F)c(Nc3ccc(F)cc3)n2)c1 [Compound 9h] | 6.25 ± 1.38 µM | –
19 | – | O=C(Nc1nccs1)c1cccc(Nc2ncc(F)c(Nc3ccc(F)cc3)n2)c1 [Compound 11o] | > 10 µM | –
20 | – | CN(C)CC(=O)Nc1cccc(Nc2ncc(F)c(Nc3ccc(F)cc3)n2)c1 [Compound 9g] | 1.26 ± 0.05 µM | –
21 | – | COc1ccc(N2CCN(C)CC2)cc1Nc1ncc(F)c(Nc2ccc(F)cc2)n1 [Compound 6f] | 0.96 ± 0.21 µM | –
22 | – | CS(=O)(=O)N1CCN(C(=O)c2cccc(Nc3ncc(F)c(Nc4ccc(F)cc4)n3)c2)CC1 [Compound 11d] | 20.29 ± 4.09 µM | –
23 | – | Fc1cnc(Nc2cccc(N3CCOCC3)c2)nc1Nc1ccc(Cl)c(Cl)c1 [Compound 6b] | > 10 µM | –
24 | – | CN1CCC(C(=O)Nc2cccc(Nc3ncc(F)c(Nc4ccc(F)cc4)n3)c2)CC1 [Compound 9f] | 1.70 ± 0.80 µM | –
25 | – | COc1cc(NC(=O)c2cccc(Nc3ncc(F)c(Nc4ccc(F)cc4)n3)c2)cc(OC)c1 [Compound 11k] | 15.47 ± 1.58 µM | –
26 | moderate selectivity to CDK9 over CDK2 | Fc1cnc(Nc2cccc(N3CCOCC3)c2)nc1Nc1c(F)cccc1F [Compound 6d] | > 10 µM | Appreciable inhibition
27 | – | O=C(NCCO)c1cccc(Nc2ncc(F)c(Nc3ccc(F)cc3)n2)c1 [Compound 11g] | 12.39 ± 2.48 µM | –
28 | – | CN(C)c1ccc(C(=O)Nc2cccc(Nc3ncc(F)c(Nc4ccc(F)cc4)n3)c2)cc1 [Compound 9c] | > 10 µM | –
29 | – | O=C(Nc1cccc(Nc2ncc(F)c(Nc3ccc(F)cc3)n2)c1)c1cccc([N+](=O)[O-])c1 [Compound 9b] | 15.10 ± 1.16 µM | –
30 | – | CN1CC[C@H](c2c(O)cc(O)c3c(=O)cc(-c4ccccc4Cl)oc23)[C@H](O)C1 [FVP, flavopiridol, reference compound] | 0.16 ± 0.007 µM | –
31 | – | CN(C)CCNC(=O)c1cccc(Nc2ncc(F)c(Nc3ccc(F)cc3)n2)c1 [Compound 11f] | 4.16 ± 0.69 µM | Appreciable inhibition
